For the test, the system named is Human cervical carcinoma KB cells. In words: Growth inhibition assay, KB cells (MTS). It is filed as cell-based. The settings on record: 72 h, read-out: IC50 (concentration causing 50% cell growth inhibition). Here is the method:
Anticancer activities of the compounds of this invention were evaluated using a growth inhibition assay described in Kuo et al., Cancer Res. 2004, 64(13), 4621-4628.
Human cervical carcinoma KB cells were maintained in plastic dishes in DMEM medium supplemented with 10% fetal bovine serum. For in vitro treatment, tumor cells were seeded in […] of culture medium/well in 96-well plates to a final cell density of 6×10^3 cell/mL and incubated in a CO2 incubator at 37° C. for 24 h. The cells were treated with at least five different concentrations of a test compound, and incubated in a CO2 incubator at 37° C. for 72 h. The number of viable cells was estimated using MTS assay and absorbance was measured at 490 nm. For each test compound, dose-response curves were measured with at least five different drug concentrations, and the concentration causing 50% cell growth inhibition (IC50) compared with the control was calculated.

Consider `Cc1cc(=O)oc2c1ccc1oc(C(=O)c3ccc(Br)cc3)c(-c3ccc(Br)cc3)c12` [Compound 211], for which the IC50 fell in the range of 1000 to 10000 nM. With `CCCOc1cccc(C(=O)c2oc3ccc4c(C)cc(=O)oc4c3c2-c2ccc(Br)cc2)c1` [Compound 253] the figure was 101 to 999 nM. The figure for `Cc1cc(=O)oc2c1ccc1oc(C(=O)c3cccc(Cl)c3)c(-c3ccc(Br)cc3)c12` [Compound 217] is 101 to 999 nM; for `Cc1cc(=O)oc2c1ccc1oc(C(=O)C3CCCCC3)c(-c3ccccc3)c12` [Compound 127] it is 1000 to 10000 nM; for `CCCCCc1c(C(=O)c2ccccc2)oc2ccc3c(C)cc(=O)oc3c12` [Compound 156] it is 1000 to 10000 nM. The figure for `Cc1cc(=O)oc2c1ccc1sc(C(=O)c3ccccc3)c(-c3ccccc3)c12` [Compound 26] is 101 to 999 nM. As to `Cc1cc(=O)oc2c1ccc1oc(C(=O)c3ccccc3)c(-c3ccc(Cl)c(Cl)c3)c12` [Compound 224], the IC50 fell in the range of 101 to 999 nM.

With `O=C(c1ccccc1)c1oc2ccc3c4ccccc4c(=O)oc3c2c1-c1ccccc1` [Compound 22], the IC50 lay within 1000 to 10000 nM. The figure for `Cc1cc(=O)oc2c1ccc1oc(C(=O)c3ccc(OCCN(C)C)cc3)c(-c3ccccc3)c12` [Compound 266] is 1000 to 10000 nM; for `Cc1ccc(C(=O)c2oc3ccc4c(C)cc(=O)oc4c3c2-c2ccccc2)o1` [Compound 94] it is 101 to 999 nM; for `Cc1cc(=O)oc2c1ccc1oc(C(=O)c3ccc4ccccc4c3)c(-c3ccc(F)cc3)c12` [Compound 220] it is 101 to 999 nM. The figure for `O=C(c1ccccc1)c1oc2ccc3c(C(F)(F)F)cc(=O)oc3c2c1-c1ccccc1` [Compound 11] is 101 to 999 nM; for `Cc1cc(=O)oc2c1ccc1oc(C(=O)c3cccc(OCCCO[Si](C)(C)C(C)(C)C)c3)c(-c3ccccc3)c12` [Compound 190] it is 101 to 999 nM. The figure for `Cc1cc(=O)oc2c1ccc1oc(C(=O)c3ccc([N+](=O)[O-])cc3)c(-c3ccccc3)c12` [Compound 51] is 101 to 999 nM. Take `Cc1cc(=O)oc2c1ccc1oc(C(=O)c3cccc(C(F)(F)F)c3)c(-c3ccccc3)c12` [Compound 36]: the IC50 was 101 to 999 nM. With `Cc1cc(=O)oc2c1ccc1oc(C(=O)c3cccc(OCCCCN(C)C)c3)c(-c3ccccc3)c12` [Compound 88], the IC50 was 101 to 999 nM.

`Cc1cc(=O)oc2c1ccc1oc(C(=O)c3cccc(OCCCCN4CCN(C)CC4)c3)c(-c3ccccc3)c12` [Compound 91]: the IC50 is 1000 to 10000 nM. The figure for `Cc1cc2ccc3oc(C(=O)c4ccccc4)c(-c4ccccc4)c3c2oc1=O` [Compound 3] is 101 to 999 nM; for `Cc1cc(=O)oc2c1ccc1oc(/C(=N/NC(N)=O)c3ccccc3)c(-c3ccccc3)c12` [Compound 174] it is 1000 to 10000 nM; for `Cc1cc(=O)oc2c1ccc1oc(C(=O)c3ccc(OCCN4CCOCC4)cc3)c(-c3ccccc3)c12` [Compound 265] it is 1000 to 10000 nM. With `COc1ccc(-c2c(C(=O)c3ccccc3)oc3ccc4c(C)cc(=O)oc4c23)cc1` [Compound 248] the figure was 101 to 999 nM. With `Cc1cc(=O)oc2c1ccc1oc(C(=O)c3ccc(Cl)cc3)c(-c3ccccc3)c12` [Compound 49] the figure was 101 to 999 nM; with `Cc1cc(=O)oc2c1ccc1oc(C(=O)c3cccn3C)c(-c3ccccc3)c12` [Compound 102], 1000 to 10000 nM. `Cc1cc(=O)oc2c1ccc1oc(C(=O)c3ccc(F)cc3)c(-c3ccccc3)c12` [Compound 46]: the IC50 was 101 to 999 nM. The figure for `Cc1cc(=O)oc2c1ccc1oc(C(=O)c3ccc(C(F)(F)F)cc3)c(-c3ccccc3)c12` [Compound 37] is 1000 to 10000 nM; for `Cc1cc(=O)oc2c1ccc1oc(C(=O)c3cc(F)ccc3F)c(-c3ccc(F)cc3)c12` [Compound 221] it is 101 to 999 nM; for `Cc1cc(=O)oc2c1ccc1oc(C(=O)c3ccc(Br)cc3)c(-c3ccccc3)c12` [Compound 50] it is 101 to 999 nM.

As to `Cc1cc(=O)oc2c1ccc1oc(C(=O)c3cccc(C#N)c3)c(-c3ccccc3)c12` [Compound 42], the IC50 was in the range of 101 to 999 nM. With `Cc1cc(=O)oc2c1ccc1oc(C(=O)c3ccccc3)c(-c3ccc(Cl)cc3)c12` [Compound 137] the figure was 101 to 999 nM.

For the compound `CCCCCCCCCCc1c(C(=O)c2ccccc2)oc2ccc3c(C)cc(=O)oc3c12` [Compound 158], the IC50 lay within 1000 to 10000 nM. With `Cc1cc(=O)oc2c1ccc1oc(C(=O)c3ccccc3)c(-c3cccc4ccccc34)c12` [Compound 206] the figure was 101 to 999 nM; with `Cc1cc(=O)oc2c1ccc1oc(C(=O)c3ccccc3)c(-c3cccc(F)c3)c12` [Compound 133], 101 to 999 nM; with `Cc1cc(=O)oc2c1ccc1oc(C(=O)c3cccc([N+](=O)[O-])c3)c(-c3ccccc3)c12` [Compound 66], 101 to 999 nM.

Turning to `CC(=O)c1oc2ccc3c(C)cc(=O)oc3c2c1-c1ccccc1` [Compound 119], the IC50 lay within 1000 to 10000 nM. With `Cc1ccc(C(=O)c2oc3ccc4c(C)cc(=O)oc4c3c2-c2ccccc2)cc1` [Compound 41] the figure was 101 to 999 nM; with `Cc1cc(=O)oc2c1ccc1oc(C(=O)c3ccc(OC(F)(F)F)cc3)c(-c3ccccc3)c12` [Compound 38], 101 to 999 nM; with `COc1ccccc1C(=O)c1oc2ccc3c(C)cc(=O)oc3c2c1-c1ccc(Br)cc1` [Compound 219], 101 to 999 nM. In the case of `Cc1cc(=O)oc2c1ccc1oc(C(=O)c3cccc(OCCOCCOCCO)c3)c(-c3ccccc3)c12` [Compound 177], the IC50 was 101 to 999 nM.

As for `Cc1cc(=O)oc2c1ccc1oc(C(=O)c3cccc(OCCCCN4CCCCC4)c3)c(-c3ccccc3)c12` [Compound 85], the IC50 is 101 to 999 nM. Take `Cc1cc(=O)oc2c1ccc1oc(C(=O)c3ccccc3)c(-c3ccccc3Cl)c12` [Compound 135]: the IC50 was 101 to 999 nM. The figure for `Cc1cc(=O)oc2c1ccc1oc(C(=O)c3ccccc3)c(-c3ccco3)c12` [Compound 159] is 101 to 999 nM; for `CCCCCCc1c(C(=O)c2ccccc2)oc2ccc3c(C)cc(=O)oc3c12` [Compound 157] it is 101 to 999 nM. The figure for `Cc1cc(=O)oc2c1ccc1oc(C(=O)c3ccccc3)c(C)c12` [Compound 154] is 101 to 999 nM; for `Cc1cc(=O)oc2c1ccc1oc(C(=O)c3cccs3)c(-c3ccc(Br)cc3)c12` [Compound 254] it is 101 to 999 nM; for `Cc1cc(=O)oc2c1ccc1oc(C(=O)c3ccc4ccccc4c3)c(-c3ccc(Br)cc3)c12` [Compound 208] it is 1000 to 10000 nM. The figure for `Cc1cc(=O)oc2c1ccc1oc(C(=O)c3cccc(OCCN4CCN(C)CC4)c3)c(-c3ccccc3)c12` [Compound 89] is 101 to 999 nM; for `CC(=O)OCC1C(OCCOc2cccc(C(=O)c3oc4ccc5c(C)cc(=O)oc5c4c3-c3ccccc3)c2)OC(OC(C)=O)C(OC(C)=O)C1OC(C)=O` (stereo not drawn) [Compound 194] it is 101 to 999 nM. Regarding `Cc1cc(=O)oc2c1ccc1oc(C(=O)c3ccc(-c4ccccc4)cc3)c(-c3ccccc3)c12` [Compound 52], the IC50 fell in the range of 1000 to 10000 nM. On to `Cc1c(Cc2ccccc2)c(=O)oc2c1ccc1oc(C(=O)c3ccccc3)c(-c3ccccc3)c12` [Compound 19], for which the IC50 lay within 1000 to 10000 nM. As for `CCCCCCCCCCOc1cccc(C(=O)c2oc3ccc4c(C)cc(=O)oc4c3c2-c2ccccc2)c1` [Compound 244], the IC50 fell in the range of 101 to 999 nM. The figure for `Cc1cc(=O)oc2c1ccc1oc(/C(=N/OCc3ccccc3)c3ccccc3)c(-c3ccccc3)c12` [Compound 175] is 101 to 999 nM; for `Cc1cc(=O)oc2c1ccc1oc(C(=O)c3cccc(OCCCN4CCN(C)CC4)c3)c(-c3ccccc3)c12` [Compound 90] it is 101 to 999 nM. For `CCN(CCO)CCCOc1cccc(C(=O)c2oc3ccc4c(C)cc(=O)oc4c3c2-c2ccccc2)c1` [Compound 251], the IC50 is 101 to 999 nM. Consider `Cc1cc(=O)oc2c1ccc1oc(Cc3ccccc3)c(-c3ccccc3)c12` [Compound 173], for which the IC50 lay within 101 to 999 nM. For the compound `Cc1cc(=O)oc2c1ccc1oc(C(=O)c3cccc(OCCO[Si](C)(C)C(C)(C)C)c3)c(-c3ccccc3)c12` [Compound 189], the IC50 is 101 to 999 nM. With `CCOC(=O)c1cc(C(=O)c2oc3ccc4c(C)cc(=O)oc4c3c2-c2ccccc2)on1` [Compound 110] the figure was 1000 to 10000 nM; with `Cc1cc(=O)oc2c1ccc1oc(C(=O)c3ccccc3)c(-c3ccccc3Br)c12` [Compound 138], 101 to 999 nM; with `Cc1cc(=O)oc2c1ccc1oc(C(=O)c3ccc(Br)s3)c(-c3ccccc3)c12` [Compound 98], 101 to 999 nM. The figure for `Cc1cc(=O)oc2c1ccc1oc(C(=O)c3ccc(Cl)c(Cl)c3)c(-c3ccccc3)c12` [Compound 58] is 101 to 999 nM; for `CO/N=C(\c1ccccc1)c1oc2ccc3c(C)cc(=O)oc3c2c1-c1ccccc1` [Compound 176] it is 1000 to 10000 nM; for `Cc1cc(=O)oc2c1ccc1oc(C(=O)c3cc(-c4ccc(Cl)cc4)no3)c(-c3ccccc3)c12` [Compound 112] it is 1000 to 10000 nM. The figure for `Cc1cc(=O)oc2c1ccc1oc(C(=O)c3ccc(F)cc3)c(-c3ccc(Br)cc3)c12` [Compound 209] is 101 to 999 nM; for `Cc1cc(=O)oc2c1ccc1oc(C(=O)c3cc(F)ccc3F)c(-c3ccccc3)c12` [Compound 61] it is 101 to 999 nM. `Cc1cc(=O)oc2c1cc(C)c1oc(C(=O)c3ccccc3)c(-c3ccccc3)c12` [Compound 8]: the IC50 lay in the range of 1000 to 10000 nM. With `Cc1cc(=O)oc2c1ccc1oc(C(=O)c3ccco3)c(-c3ccccc3)c12` [Compound 92] the figure was 101 to 999 nM. With `Cc1cc(=O)oc2c1ccc1oc(C(O)c3ccccc3)cc12` (stereo not drawn) [Compound 226] the figure was 101 to 999 nM.

These data come from patent publication US8058427B2, “Coumarin compounds and their use for treating cancer” (National Health Research Institutes, priority 2008, dated 2011).
